Patent US7601708B2, “Bile-acid derived compounds for providing sustained systemic concentrations of drugs after oral administration” (XenoPort, Inc., priority 2000, dated 2009)

How the values were obtained:
[1] = molecular target: T1, LBAT (Homo sapiens, UniProt Q14973); experiment: Electrogenic transport in Xenopus oocytes expressing LBAT; type: cell-based; details: maximal induced current relative to glycodeoxycholate (100 μM)
T1 sequence (Q14973 1-349): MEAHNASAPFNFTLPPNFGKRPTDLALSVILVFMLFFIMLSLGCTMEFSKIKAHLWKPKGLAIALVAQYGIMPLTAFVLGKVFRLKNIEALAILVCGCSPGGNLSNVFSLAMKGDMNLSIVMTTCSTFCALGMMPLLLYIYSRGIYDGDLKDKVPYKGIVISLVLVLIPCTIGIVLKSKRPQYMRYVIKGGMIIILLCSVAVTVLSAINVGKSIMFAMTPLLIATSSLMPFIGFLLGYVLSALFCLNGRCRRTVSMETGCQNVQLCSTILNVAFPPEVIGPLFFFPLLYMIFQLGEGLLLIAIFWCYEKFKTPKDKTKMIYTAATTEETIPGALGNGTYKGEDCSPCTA
Description: (b) Analysis of Electrogenic Transport in Xenopus Oocytes RNA Preparation: Human IBAT and LBAT Transporter cDNAs were subcloned into a modified pGEM plasmid that contains [NT] untranslated sequences from the Xenopus β-actin gene. These sequences increase RNA stability and protein expression. […] Xenopus oocyte isolation. Xenopus laevis frogs were anesthetized by immersion in Tricaine ([…] in deionized water) for 15 min. […] The oocytes were washed 6 times, and the buffer changed to frog ringer solution containing CaCl2 (1.8 mM). Remaining follicle cells were removed if necessary. Cells were incubated at 16° C., and each oocyte injected with […] solution. Electrophysiology measurements. […] Bath flow was controlled by an automated perfusion system (ALA Scientific Instruments, solenoid valves). For transporter pharmacology, oocytes were clamped at -60 to -90 mV, and continuous current measurements acquired using PowerLab Software and an ADInstruments digitizer. Current signals were lowpass filtered at 20 Hz and acquired at 4-8 Hz. All bath and drug-containing solutions were frog ringers solution containing CaCl2. […] The difference current (baseline subtracted from peak current during drug application) reflected the net movement of charge resulting from electrogenic transport and was directly proportional to tranport rate.

[2] = molecular target: T2, Carboxypeptidase A (Bos taurus, UniProt P00730); experiment: Stability towards purified carboxypeptidase A; type: in vitro ADME; details: Carboxypeptidase A (10 units/mL); substrate 2.0 μM; no cofactors; 37° C.
T2 sequence (P00730 111-419): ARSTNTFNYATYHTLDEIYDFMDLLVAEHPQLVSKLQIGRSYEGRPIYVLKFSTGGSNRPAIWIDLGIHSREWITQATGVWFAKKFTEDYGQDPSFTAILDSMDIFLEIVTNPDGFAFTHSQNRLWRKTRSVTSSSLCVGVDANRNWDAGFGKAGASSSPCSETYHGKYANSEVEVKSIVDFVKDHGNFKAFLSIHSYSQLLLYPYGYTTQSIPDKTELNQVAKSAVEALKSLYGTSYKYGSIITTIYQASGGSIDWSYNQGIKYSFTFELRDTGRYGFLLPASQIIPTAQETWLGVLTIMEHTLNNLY

[3] = molecular target: T3, LBAT (Homo sapiens, UniProt Q14973); experiment: In vitro uptake by CHO cells transfected with LBAT evaluated by LC-MS/MS; type: cell-based; details: 0.06 to 1000 μM, 10 min; uptake by untransfected CHO K1 cells subtracted
T3 construct: expressed in transfected cells; host or cells: CHO
Description: (§1) Active transport of (8) by the bile acid transport system was evaluated in vitro by incubation of (8) or glycocholate (control substrate) with untransfected CHO K1 cells or CHO cells transfected with either IBAT or LBAT. Cells (10^5 cells/mL) were incubated in 96 well plates with varying concentrations (0.06 to 1000 μM) of (8) or glycocholate for 10 min. Cells were then washed with Hank's Balanced Salt Solution (HBSS) and lysed and extracted by addition of 100 μL of water followed by sonication. Concentrations of (8) or glycocholate in cell extracts were determined by direct injection onto an API 2000 LC/MS/MS equipped with an Agilent 1100 binary pump and autosampler. Separation was achieved using a Keystone BDS Hypersil 2×50 mm column heated to 45° C. during the analysis. The mobile phases were: 0.1% formic acid in water (A) and 0.1% formic acid in acetonitrile (B). The gradient condition was: 5% B for 1 min, increasing to 90% B in 0.2 min, maintained for 2.8 min and returning to 5% B for 2 min. A TurboIonSpray source was used on the API 2000. The analysis was performed in the positive ion mode and MRM transitions of 466/412 and 562/154 were used in the analysis of glycocholate and (8), respectively. Ten microliters of the cell extracts were injected. Peaks were integrated using Analyst quantitation software. […]

[4] = male, Sprague-Dawley, rat, in vivo, po, 85.25 mg/kg
[5] = Secretion in bile after oral administration to bile duct-cannulated rats; type: in vivo, Sprague-Dawley rats; details: single oral dose of (8) 85.25 mg/kg
Description: Sustained release of gabapentin from a prodrug that is subject to enterohepatic recirculation requires that a proportion of the intact prodrug be absorbed after oral administration and subsequently secreted into the bile intact. The potential for enterohepatic recirculation of intact (8) was examined in rats with indwelling bile duct fistulae. […] Bile was collected continuously in aliquots over 24 hours. Plasma and bile samples were frozen at −80° C. until analyzed. […] Concentrations of intact (8) in bile were similarly determined by LC/MS/MS. Bile (20 μL) was diluted 1:1000 with methanol and injected directly onto the HPLC system. Concentrations of (8) in bile reached a maximum at ˜6 hours post-dosing and were sustained up to 24 hours.

[6] = molecular target: T4, IBAT (Homo sapiens, UniProt Q12908); experiment: In vitro uptake by CHO cells transfected with IBAT evaluated by LC-MS/MS; type: cell-based; details: 0.06 to 1000 μM, 10 min; uptake by untransfected CHO K1 cells subtracted
T4 construct: expressed in transfected cells; host or cells: CHO
Description: as §1

[7] = Pharmacokinetics after oral administration to rats; details: single oral dose of gabapentin 25 mg/kg

T4 sequence (Q12908 whole entry): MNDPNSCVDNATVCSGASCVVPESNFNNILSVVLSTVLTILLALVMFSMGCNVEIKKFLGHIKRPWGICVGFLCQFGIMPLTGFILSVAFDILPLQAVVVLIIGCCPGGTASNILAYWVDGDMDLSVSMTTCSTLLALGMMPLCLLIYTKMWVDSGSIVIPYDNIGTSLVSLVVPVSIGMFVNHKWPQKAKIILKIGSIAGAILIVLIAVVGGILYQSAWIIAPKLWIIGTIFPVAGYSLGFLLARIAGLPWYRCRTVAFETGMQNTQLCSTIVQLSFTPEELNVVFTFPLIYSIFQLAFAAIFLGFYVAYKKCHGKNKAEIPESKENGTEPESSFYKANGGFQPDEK

SMILES: CC(CCC(=O)NCC(=O)NCC1(CC(=O)O)CCCCC1)C1CCC2C3C(O)CC4CC(O)CCC4(C)C3CC(O)C12C (stereo not shown) [(13), Cholyl-Gly-Gabapentin]
- % Max. (GDC) [1]: 38%

SMILES: CC(CCC(=O)NCC1(CC(=O)O)CCCCC1)C1CCC2C3C(O)CC4CC(O)CCC4(C)C3CC(O)C12C (stereo not shown) [Compound (8)]
- Percent of Gabapentin Released in 60 min [2]: Stable
- Active uptake into LBAT transfected cells [3]: Active uptake
- time of maximum concentration of intact (8) in plasma [4]: ~8 h
- time to which concentrations of intact (8) in plasma were sustained [4]: 24 h
- time of maximum concentration of (8) in bile [5]: ~6 h
- time to which concentrations of (8) in bile were sustained [5]: 24 h
- gabapentin in plasma of bile duct-cannulated rats ([5]; analyte gabapentin): no gabapentin was detected
- Active uptake into IBAT transfected cells [6]: Active uptake

SMILES: NCC1(CC(=O)O)CCCCC1 [gabapentin, 1-aminomethyl-1-cyclohexaneacetic acid]
- terminal half-life of gabapentin in plasma [7]: 2.4 ± 0.5 h
